Test results taken from US20230203004A1, “RSV INHIBITING 3-SUBSTITUTED QUINOLINE AND CINNOLINE DERIVATIVES” (Janssen Sciences Ireland Unlimited Company, priority 2020, published 2023).
Like-named read-outs stand apart in the source and are kept apart here.

How the values were obtained:
rgRSV224 virus = assay: Antiviral activity: rgRSV224 (GFP) replication in HeLa cells; assay type: cell-based, respiratory syncytial virus (RSV)
How it was run: (§1)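 HeLa cells infected with GFP-expressing rgRSV224 at MOI 1 in RPMI/10% FBS, 0.05% DMSO, with 9 serial 4-fold compound dilutions; 3 days at 37 °C, GFP read by laser microscopy for EC50. Cytotoxicity: uninfected HeLa cells, 3 days, cellular ATP (ATPlite) for CC50.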

HeLa cells = assay: Cytotoxicity in HeLa cells (ATP content, ATPlite kit); assay type: cell-based
How it was run: as §1

[1] = as above; assay type: cell-based; details: human
How it was run: as §1

[2] = HeLa cells, rgRSV224 MOI = 1, GFP expression three days post-virus exposure, averaged data of several repeat experiments, read-out: RSV HELA EC50
[3] = HeLa cells, three days incubation, ATP content, averaged data of several repeat experiments, read-out: TOX HELA CC50
[4] = read-out: RSV HELA EC50, HeLa cells, rgRSV224 MOI = 1, GFP expression three days post-virus exposure, averaged data of several repeat experiments
[5] = human respiratory syncytial virus, HeLa, 72 h, read-out: RSV HELA EC50, HeLa cells, rgRSV224 MOI = 1, GFP expression three days post-virus exposure, averaged data of several repeat experiments

Compound: COc1cc(C(=O)NCC(O)(c2nc(-c3ccc(F)cc3)c(Cl)c(C(C)(C)O)c2F)C(F)(F)F)cc2cc(C)nnc12 (single isomer, unassigned; (+)) [compound 248, (+)-N-{2-[5-Chloro-3-Fluoro-6-(4-Fluorophenyl)-4-(2-Hydroxypropan-2-yl)Pyridin-2-yl]-3,3,3-Trifluoro-2-Hydroxypropyl}-8-Methoxv-3-Methylcinnoline-6-Carboxamide]
- EC50 (rgRSV224 virus; [2]): 0.5 µM
- CC50 (HeLa cells; [3]): 41 µM

Compound: COc1cc(C(=O)NCC(O)(c2cc(C(C)(C)O)c(F)c(-c3ccc(F)cc3)n2)C(F)F)cc2cc(C)cnc12 (single isomer, unassigned; (-)) [compound 204, (-)-N-{3,3-Difluoro-2-[5-Fluoro-6-(4-Fluorophenyl)-4-(2-Hydroxypropan-2-yl)Pyridin-2-yl]-2-Hydroxypropyl}-8-Methoxy-3-Methylquinoline-6-Carboxamide]
- EC50 (rgRSV224 virus; [4]): 0.001 µM
- CC50 (HeLa cells; human, 3 days): 48 µM

Compound: COc1cc(C(=O)NCC(O)(c2cc(C(C)(C)O)c(F)c(-c3ccc(F)cc3)n2)C(F)F)cc2cc(C)c(F)nc12 (single isomer, unassigned; (-)) [compound 214, (-)-N-{3,3-Difluoro-2-[5-Fluoro-6-(4-Fluorophenyl)-4-(2-Hydroxypropan-2-yl)Pyridin-2-yl]-2-Hydroxypropyl}-2-Fluoro-8-Methoxy-3-Methylquinoline-6-Carboxamide]
- EC50 (rgRSV224 virus; [4]): 0.0014 µM
- CC50 (HeLa cells; human, 3 days): 28 µM

Compound: COc1cc(C(=O)NCC(O)(c2cc(C(C)(C)O)c(Cl)c(-c3ccc(F)cc3)n2)C(C)C)cc2cc(C)nnc12 (single isomer, unassigned; (-)) [compound 231, (-)-N-{2-[5-Chloro-6-(4-Fluorophenyl)-4-(2-Hydroxypropan-2-yl)Pyridin-2-yl]-2-Hydroxy-3-Methylbutyl}-8-Methoxy-3-Methylcinnolme-6-Carboxamide]
- EC50 (rgRSV224 virus; [2]): 0.00041 µM
- CC50 (HeLa cells; [3]): 21 µM

Compound: COc1cc(C(=O)NCC(O)(c2cc(C(C)(C)O)c(F)c(-c3ccc(F)cc3)n2)C(F)F)cc2cc(C)nnc12 (single isomer, unassigned; (-)) [compound 250, (-)-N-{3,3-Difluoro-2-[5-Fluoro-6-(4-Fluorophenyl)-4-(2-Hydroxypropan-2-yl)Pyridin-2-yl]-2-Hydroxypropyl}-8-Methoxy-3-Methylcinnoline-6-Carboxamide]
- EC50 (rgRSV224 virus; [4]): 0.0014 µM
- CC50 (HeLa cells; human, 3 days): 40 µM

Compound: COc1cc(C(=O)NCC(O)(c2cc(C(C)(C)O)c(F)c(-c3ccc(C(F)(F)F)cc3)n2)C2CC2)cc2cc(C)nnc12 (single isomer, unassigned; (-)) [compound 253]
- EC50 (rgRSV224 virus; [2]): 0.00025 µM
- CC50 (HeLa cells; [3]): 13 µM

Compound: COc1cc(C(=O)NCC(O)(c2cc(C(C)(C)O)c(F)c(-c3ccc(F)c(F)c3)n2)C2CC2)cc2cc(C)nnc12 (single isomer, unassigned; (-)) [compound 256]
- EC50 (rgRSV224 virus; [2]): 0.00019 µM
- CC50 (HeLa cells; [3]): 33 µM

Compound: Cc1cc2cc(C(=O)NCC(O)(c3nc(-c4ccc(F)cc4)c(F)c(C(C)(C)O)c3F)C(F)(F)F)cc(OC3CC3)c2nn1 (single isomer, unassigned; (-)) [compound 262, (-)(Cyclopropyloxy)-N-{2-[3,5-Difluoro-6-(4-Fluorophenyl)-4-(2-Hydroxypropan-2-yl)Pyridin-2-yl]-3,3,3-Trifluoro-2-Hydroxypropyl}-3-Methylcinnoline-6-Carboxamide]
- EC50 (rgRSV224 virus; [2]): 0.0019 µM
- CC50 (HeLa cells; [3]): 45 µM

Compound: Cc1cc2cc(C(=O)NCC(O)(c3nc(-c4ccc(F)cc4)c(Cl)c(C(C)(C)O)c3F)C(F)(F)F)cc(OC3CC3)c2nn1 (single isomer, unassigned; (-)) [compound 263]
- EC50 (rgRSV224 virus; [2]): 0.0027 µM
- CC50 (HeLa cells; [3]): 47 µM

Compound: COc1cc(C(=O)NC[C@@](O)(c2nc(-c3ccc(F)cc3)c(F)c(C(C)(C)O)c2C)C2CC2)cc2cc(C)nnc12 [compound 245]
- EC50 (rgRSV224 virus; [2]): 0.0029 µM
- CC50 (HeLa cells): 48 µM

Compound: COc1cc(C(=O)NC[C@](O)(c2nc(-c3ccc(F)cc3)c(F)c(C(C)(C)O)c2C)C2CC2)cc2cc(C)nnc12 [compound 246]
- EC50 (rgRSV224 virus; [2]): 0.2 µM
- CC50 (HeLa cells): 46 µM

Compound: [2H]C([2H])(NC(=O)c1cc(OC)c2nnc(C)cc2c1)[C@](O)(c1cc(C(C)(C)O)c(F)c(-c2ccc(F)cc2)n1)C1CC1 [compound 316]
- EC50 (rgRSV224 virus; [5]): 0.00034 µM
- CC50 at 3 days ([1]; TOX HELA CC50): 33 µM

Compound: Cc1cc2cc(C(=O)NC[C@](O)(c3cc(C(C)(C)O)c(F)c(-c4ccc(F)cc4)n3)C(F)(F)F)cc(OC3CC3)c2nn1 [compound 318, (-)Cyclopropoxy-3-Methyl-N-(3.3.3-Trifluoro-2-(5-Fluoro-6-(4-Fluorophenyl)-4-(2-Hydroxypropan-2-yl)Pyridin-2-yl)-2-Hydroxypropyl)Cinnoline-6-Carboxamide]
- EC50 (rgRSV224 virus; [5]): 0.0014 µM
- CC50 at 3 days ([1]; TOX HELA CC50): 22 µM

Compound: COc1cc(C(=O)NC[C@](O)(c2cc(C(C)(C)O)c(F)c(-c3ccc(F)cc3)n2)C(F)(F)F)cc2cc(C3CC3)cnc12 [compound 321, (-)Cyclopropyl-8-Methoxy-N-(3,3,3-Trifluoro-2-(5-Fluoro-6-(4-Fluorophenyl)-4-(2-Hydroxypropan-2-yl)Pyridin-2-yl)-2-Hydroxypropyl)Quinoline-6-Carboxamide]
- EC50 (rgRSV224 virus; [5]): 0.054 µM
- CC50 at 3 days ([1]; TOX HELA CC50): 13 µM

Compound: COc1cc(C(=O)NC[C@](O)(c2cc(C(C)(C)O)c(F)c(-c3ccc(F)cc3)n2)C(F)(F)F)cc2cc(C)cnc12 [compound 322, (-)Methoxy-3-Methyl-N-(3,3,3-Trifluoro-2-(5-Fluoro-6-(4-Fluorophenyl)-4-(2-Hydroxypropan-2-yl)Pyridm-2-yl)-2-Hydroxypropyl)Qumolme-6-Carboxamide]
- EC50 (rgRSV224 virus; [5]): 0.0045 µM
- CC50 at 3 days ([1]; TOX HELA CC50): 15 µM

Compound: COc1cc(C(=O)NC[C@](O)(c2cc(C(C)(C)O)c(F)c(-c3ccc(F)cc3)n2)C(F)(F)F)cc2cc(CF)cnc12 [compound 324, (-)(Fluoromethyl)-8-Methoxy-N-(3,3,3-Trifluoro-2-(5-Fluoro-6-(4-Fluorophenyl)-4-(2-Hydroxypropan-2-yl)Pyridin-2-yl)-2-Hydroxypropyl)Quinoline-6-Carboxamide]
- EC50 (rgRSV224 virus; [5]): 0.012 µM
- CC50 at 3 days ([1]; TOX HELA CC50): 4 µM

Compound: COc1cc(C(=O)NC[C@](O)(c2cc(C(C)(C)O)c(F)c(-c3ccc(F)cc3)n2)C(F)(F)F)cc2cc(C(F)F)cnc12 [compound 325, (-)(Difluoromethyl)-8-Methoxy-N-(3,3,3-Trifluoro-2-(5-Fluoro-6-(4-Fluorophenyl)-4-(2-Hydroxypropan-2-yl)Pyridin-2-yl)-2-Hydroxypropyl)Quinoline-6-Carboxamide]
- EC50 (rgRSV224 virus; [5]): 0.0036 µM
- CC50 at 3 days ([1]; TOX HELA CC50): 13 µM

Compound: COc1cc(C(=O)NC[C@](O)(c2cc(C(C)(C)O)c(F)c(-c3ccc(F)cc3)n2)C(F)(F)F)cc2cc(C(F)(F)F)cnc12 [compound 326, (-)(Trifluoromethyl)-8-Methoxy-N-(3,3,3-Trifluoro-2-(5-Fluoro-6-(4-Fluorophenyl)-4-(2-Hydroxypropan-2-yl)Pyridin-2-yl)-2-Hydroxypropyl)Quinoline-6-Carboxamide]
- EC50 (rgRSV224 virus; [5]): 0.026 µM
- CC50 at 3 days ([1]; TOX HELA CC50): 13 µM

Compound: COc1cc(C(=O)NC[C@](O)(c2cc(C(C)(C)O)c(Cl)c(-c3ccc(F)cc3)n2)C(F)(F)F)cc2cc(C(F)F)cnc12 [compound 327, (-)(Difluoromethyl)-8-Methoxy-N-(3,3,3-Trifluoro-2-(5-Chloro-6-(4-Fluorophenyl)-4-(2-Hydroxypropan-2-yl)Pyridin-2-yl)-2-Hydroxypropyl)Quinoline-6-Carboxamide]
- EC50 (rgRSV224 virus; [5]): 0.0095 µM
- CC50 at 3 days ([1]; TOX HELA CC50): 15 µM

Compound: COc1cc(C(=O)NC[C@](O)(c2cc(C(C)(C)O)c(Cl)c(-c3ccc(F)cc3)n2)C(F)(F)F)cc2cc(C(F)(F)F)cnc12 [compound 328, (-)(Trifluoromethyl)-8-Methoxy-N-(3,3,3-Trifluoro-2-(5-Chloro-6-(4-Fluorophenyl)-4-(2-Hydroxypropan-2-yl)Pyridin-2-yl)-2-Hydroxypropyl)Quinoline-6-Carboxamide]
- EC50 (rgRSV224 virus; [5]): 0.04 µM
- CC50 at 3 days ([1]; TOX HELA CC50): 14 µM

Compound: COc1cc(C(=O)NC[C@](O)(c2cc(C(C)(C)O)c(F)c(-c3ccc(F)c(F)c3)n2)C(F)(F)F)cc2cc(C(F)F)cnc12 [compound 330, (-)(Difluoromethyl)-8-Methoxy-N-(3,3,3-Trifluoro-2-(5-Fluoro-6-(3,4-Difluorophenyl)-4-(2-Hydroxypropan-2-yl)Pyridin-2-yl)-2-Hydroxypropyl)Quinoline-6-Carboxamide]
- EC50 (rgRSV224 virus; [5]): 0.01 µM
- CC50 at 3 days ([1]; TOX HELA CC50): 13 µM

Compound: COc1cc(C(=O)NC[C@](O)(c2cc(C(C)(C)O)c(Cl)c(-c3ccc(F)cc3)n2)C2CC2)cc2cc(C(F)(F)F)cnc12 [compound 331]
- EC50 (rgRSV224 virus; [5]): 0.0038 µM
- CC50 at 3 days ([1]; TOX HELA CC50): 14 µM

Compound: COc1cc(C(=O)NC[C@](O)(c2cc(C(C)(C)O)c(F)c(-c3ccc(F)cc3)n2)C2CC2)cc2cc(C3CC3)cnc12 [compound 332, (-)Cyclopropyl-N-(2-Cyclopropyl-2-(5-Fluoro-6-(4-Fluorophenyl)-4-(2-Hydroxypropan-2-yl)Pyridin-2-yl)-2-Hydroxyethyl)-8-Methoxyquinoline-6-Carboxamide]
- EC50 (rgRSV224 virus; [5]): 0.033 µM
- CC50 at 3 days ([1]; TOX HELA CC50): 14 µM

Compound: COc1cc(C(=O)NC[C@@](O)(c2cc(C(C)(C)O)c(F)c(-c3ccc(F)cc3)n2)C(F)(F)F)cc2cc(C)nnc12 [compound 334, (+)Methoxy-3-Methyl-N-(3,3,3-Trifluoro-2-(5-Fluoro-6-(4-Fluorophenyl)-4-(2-Hydroxypropan-2-yl)Pyridin-2-yl)-2-Hydroxypropyl)Cinnoline-6-Carboxamide]
- EC50 (rgRSV224 virus; [5]): 0.245 µM
- CC50 at 3 days ([1]; TOX HELA CC50): 17 µM

Compound: COc1cc(C(=O)NCC(O)(c2cc(C(C)(C)N)c(F)c(-c3ccc(F)c(Cl)c3)n2)C(F)(F)F)cc2cccnc12 (centres unmarked) [reference compound]
- EC50 (rgRSV224 virus; human respiratory syncytial virus, HeLa, comparison table 5.3, antiviral RSV assay of Example 5.1): 0.053 µM
- CC50 at 3 days ([1]; CC50): 13 µM
